{
  "source": "a flash point compilation (Sun et al. 2020)",
  "data": [
    {"units": {"flash point": "°C"}, "values": [
      {"smiles": "C=C(C)C(C)CC", "note": "(configuration not stated) [2,3-dimethyl-1-pentene]", "flash point": -17},
      {"smiles": "C/C=C\\CCC", "note": "[cis-2-hexene]", "flash point": -26},
      {"smiles": "CCC/C=C\\CCC", "note": "[cis-4-octene]", "flash point": 17},
      {"smiles": "CCc1ccccc1C(C)C", "note": "[1-ethyl-2-isopropylbenzene]", "flash point": 58},
      {"smiles": "Cc1cccc(C(C)C)c1", "note": "[m-isopropyltoluene]", "flash point": 50},
      {"smiles": "C=CC1CCCCC1", "note": "[vinylcyclohexane]", "flash point": 21},
      {"smiles": "CCCCCCC(C)CC", "note": "(configuration not stated) [3-methylnonane]", "flash point": 41},
      {"smiles": "CCC(C)CCCC(C)C", "note": "(configuration not stated) [2,6-dimethyloctane]", "flash point": 34},
      {"smiles": "C#CCC(C)C", "note": "[4-methyl-1-pentyne]", "flash point": -24},
      {"smiles": "CCCC(C)(C)C(C)(C)C", "note": "[2,2,3,3-tetramethylhexane]", "flash point": 31},
      {"smiles": "C/C=C\\CC", "note": "[cis-2-pentene]", "flash point": -47},
      {"smiles": "CC(C)(C)CCC(C)(C)C", "note": "[2,2,5,5-tetramethylhexane]", "flash point": 16},
      {"smiles": "CCC1CCCC1", "note": "[ethylcyclopentane]", "flash point": -4},
      {"smiles": "CCC/C=C/CCC", "note": "[trans-4-octene]", "flash point": 8},
      {"smiles": "C[C@@H]1CCC[C@@H]1C", "note": "[cis-1,2-dimethylcyclopentane]", "flash point": -4},
      {"smiles": "C=CCCCCC(C)C", "note": "[7-methyl-1-octene]", "flash point": 18},
      {"smiles": "C[C@H]1CC[C@H](C)CC1", "note": "[trans-1,4-dimethylcyclohexane]", "flash point": 6},
      {"smiles": "C=C(CC)CCC", "note": "[2-ethyl-1-pentene]", "flash point": -10},
      {"smiles": "C1=CCCCCCC1", "note": "[cyclooctene]", "flash point": 25},
      {"smiles": "C1CC[C@H]2CCCC[C@@H]2C1", "note": "[trans-decalin]", "flash point": 52},
      {"smiles": "CCC(CC)CC", "note": "[3-ethylpentane]", "flash point": -12},
      {"smiles": "C=CCC(C)(C)C", "note": "[4,4-dimethyl-1-pentene]", "flash point": -12},
      {"smiles": "C=CCC(C)CC", "note": "(configuration not stated) [4-methyl-1-hexene]", "flash point": -15},
      {"smiles": "C#CC(C)(C)C", "note": "[3,3-dimethyl-1-butyne]", "flash point": -34},
      {"smiles": "C[C@H]1CCC[C@H](C)C1", "note": "(relative stereo) [trans-1,3-dimethylcyclohexane]", "flash point": 8},
      {"smiles": "CC/C=C/CCC", "note": "[trans-3-heptene]", "flash point": -6},
      {"smiles": "CC/C=C\\CCCC", "note": "[cis-3-octene]", "flash point": 17},
      {"smiles": "CC/C=C/CCCC", "note": "[trans-3-octene]", "flash point": 9},
      {"smiles": "CC/C=C\\CC", "note": "[cis-3-hexene]", "flash point": -28},
      {"smiles": "C=CCCC(C)C", "note": "[5-methyl-1-hexene]", "flash point": -10},
      {"smiles": "CCCCC(C)CCC", "note": "(configuration not stated) [4-methyloctane]", "flash point": 22},
      {"smiles": "C/C=C/CCCCC", "note": "[trans-2-octene]", "flash point": 14},
      {"smiles": "C=C(C)C(C)(C)C", "note": "[2,3,3-trimethyl-1-butene]", "flash point": -17},
      {"smiles": "CC1(C)CCCC1", "note": "[1,1-dimethylcyclopentane]", "flash point": -16},
      {"smiles": "C/C=C/CC", "note": "[trans-2-pentene]", "flash point": -45},
      {"smiles": "C#CCCC(C)C", "note": "[5-methyl-1-hexyne]", "flash point": -4},
      {"smiles": "CC#CC(C)(C)C", "note": "[4,4-dimethyl-2-pentyne]", "flash point": -10},
      {"smiles": "C=CCC=CC", "note": "[1,4-hexadiene]", "flash point": -25},
      {"smiles": "CC(C)C(C)(C)C(C)C", "note": "[2,3,3,4-tetramethylpentane]", "flash point": 11},
      {"smiles": "C/C=C/CCCC", "note": "[trans-2-heptene]", "flash point": -6},
      {"smiles": "CCC(CC)C(C)C", "note": "[3-ethyl-2-methylpentane]", "flash point": 3},
      {"smiles": "CCCCCCCCCc1ccccc1", "note": "[n-nonylbenzene]", "flash point": 117}
    ]},
    {"remark": "another data set of the same source", "units": {"flash point": "°C"}, "values": [
      {"smiles": "CCCCCCCC[Si](OCC)(OCC)OCC", "note": "[Octyltriethoxysilane]", "flash point": 100.00},
      {"smiles": "CCO[Si](C)(OCC)OCC", "note": "[Methyltriethoxysilane]", "flash point": 24.00},
      {"smiles": "C[Si](C)(C)N[Si](C)(C)C", "note": "[Hexamethyldisilazane]", "flash point": 8.00},
      {"smiles": "CCCCCC[Si](Cl)(Cl)Cl", "note": "[n-Hexyltrichlorosilane]", "flash point": 85.00},
      {"smiles": "C=CC=CC[Si](C)(C)C", "note": "[(2,4-Pentadienyl)trimethylsilane]", "flash point": 18.00},
      {"smiles": "Cl[Si](Cl)(Cl)CCc1ccccc1", "note": "[Trichloro(2-phenylethyl)silane]", "flash point": 91.00},
      {"smiles": "C=C(C)C(=O)OCCC[Si](OC)(OC)OC", "note": "[3-Methacryloxypropyltrimethoxysilane]", "flash point": 92.00},
      {"smiles": "[SiH3]c1ccccc1", "note": "[Phenylsilane]", "flash point": 8.00},
      {"smiles": "CO[Si](CCCNCCN)(OC)OC", "note": "[Aminoethylaminopropyltrimethoxysilane]", "flash point": 96.00},
      {"smiles": "C[SiH](C)O[Si](C)(C)C", "note": "[Pentamethyldisiloxane]", "flash point": -19.00},
      {"smiles": "CCCO[Si](C)(C)C", "note": "[Trimethyl-n-propoxysilane]", "flash point": 10.00},
      {"smiles": "C=C[Si](OCCOC)(OCCOC)OCCOC", "note": "[Vinyltris(methoxyethoxy)silane]", "flash point": 80.00},
      {"smiles": "C[Si](C)(C)C1C=CC=C1", "note": "[Cyclopentadienyltrimethylsilane]", "flash point": 29.00},
      {"smiles": "CO[Si](C)(C)OC", "note": "[Dimethyldimethoxysilane]", "flash point": -8.00},
      {"smiles": "C[Si](C)(C)O[Si](C)(C)O[Si](C)(C)O[Si](C)(C)O[Si](C)(C)C", "note": "[Dodecamethylpentasiloxane]", "flash point": 79.00},
      {"smiles": "CO[Si](C)(CCCCl)OC", "note": "[3-Chloropropylmethyldimethoxysilane]", "flash point": 45.00},
      {"smiles": "C[SiH](C)C(C)(C)C", "note": "[t-Butyldimethylsilane]", "flash point": -22.00},
      {"smiles": "C[SiH](C)c1ccccc1", "note": "[Phenyldimethylsilane]", "flash point": 38.00},
      {"smiles": "CCCCCCCCCCCC[Si](C)(Cl)Cl", "note": "[n-Dodecylmethyldichlorosilane]", "flash point": 143.00},
      {"smiles": "C#CCO[Si](C)(C)C", "note": "[Propargyloxytrimethylsilane]", "flash point": 27.00},
      {"smiles": "CCCCCCCCCCCC[Si](Cl)(Cl)Cl", "note": "[n-Dodecyltrichlorosilane]", "flash point": 162.00},
      {"smiles": "C[Si](C)(C)OC1=CCCC1", "note": "[(Cyclopentenyloxy)trimethylsilane]", "flash point": 38.00},
      {"smiles": "N#CCCC[Si](Cl)(Cl)Cl", "note": "[Trichloro(3-cyanopropyl) Silane]", "flash point": 92.00},
      {"smiles": "C=C[Si](C)(C)O[Si](C)(C)C", "note": "[Vinylpentamethyldisiloxane]", "flash point": 12.00},
      {"smiles": "CO[Si](CCC1CCC2OC2C1)(OC)OC", "note": "(configuration not stated) [2-(3,4-epoxycyclohexyl)ethyltrimethoxysilane]", "flash point": 146.00},
      {"smiles": "C[Si]1(C)O[Si](C)(C)O[Si](C)(C)O1", "note": "[Hexamethylcyclotrisiloxane]", "flash point": 32.00},
      {"smiles": "Cl[Si](Cl)(Cl)C1CCCCC1", "note": "[Cyclohexyltrichlorosilane]", "flash point": 85.00},
      {"smiles": "CC(CCl)C[Si](C)(Cl)Cl", "note": "(configuration not stated) [3-Chloro-2-methylpropylmethyldichlorosilane]", "flash point": 90.00},
      {"smiles": "C=C[Si](OC)(OC)OC", "note": "[Vinyltrimethoxysilane]", "flash point": 23.00},
      {"smiles": "CC[SiH](CC)CC", "note": "[Triethylsilane]", "flash point": -3.00},
      {"smiles": "CCCCCCCC[Si](Cl)(Cl)Cl", "note": "[n-Octyltrichlorosilane]", "flash point": 96.00},
      {"smiles": "CCN(CC)[Si](C)(C)N(CC)CC", "note": "[Bis(diethylamino)dimethylsilane]", "flash point": 35.00},
      {"smiles": "CC(C)(C)[Si](C)(C)O", "note": "[t-Butyldimethylsilanol]", "flash point": 45.00},
      {"smiles": "c1ccc([SiH2]c2ccccc2)cc1", "note": "[Diphenylsilane]", "flash point": 98.00},
      {"smiles": "CCCCCC[Si](C)(Cl)Cl", "note": "[n-Hexylmethyldichlorosilane]", "flash point": 85.00},
      {"smiles": "O=C=N[Si](N=C=O)(N=C=O)N=C=O", "note": "[Tetraisocyanatosilane]", "flash point": 50.00},
      {"smiles": "CCCCCCCCCCCCCCCC[Si](Cl)(Cl)Cl", "note": "[Hexadecyltrichlorosilane]", "flash point": 154.00},
      {"smiles": "CC(C)C[Si](Cl)(Cl)Cl", "note": "[Isobutyltrichlorosilane]", "flash point": 37.00},
      {"smiles": "C[Si](C)(C)N1CCOCC1", "note": "[N-(Trimethylsilyl)morpholine]", "flash point": 27.00},
      {"smiles": "CCC[SiH](CCC)CCC", "note": "[Tri-n-propylsilane]", "flash point": 43.00},
      {"smiles": "Cl[Si](Cl)(c1ccccc1)c1ccccc1", "note": "[Diphenyldichlorosilane]", "flash point": 142.00},
      {"smiles": "C[Si](C)(Cl)CCC(F)(F)F", "note": "[Chlorodimethyl(3,3,3-trifluoropropyl) silane]", "flash point": 20.00},
      {"smiles": "CC(C)(C)[Si](C)(C)Cl", "note": "[t-Butyldimethylchlorosilane]", "flash point": 22.00},
      {"smiles": "C[Si]1(C)N[Si](C)(C)N[Si](C)(C)N[Si](C)(C)N1", "note": "[Octamethylcyclotetrasilazane]", "flash point": 66.00},
      {"smiles": "C=CC=CO[Si](C)(C)C", "note": "[1-(Trimethylsiloxy)-1,3-butadiene]", "flash point": 25.00},
      {"smiles": "C[SiH](C)O[Si](O[SiH](C)C)(O[SiH](C)C)O[SiH](C)C", "note": "[Tetrakisdimethylsiloxysilane]", "flash point": 67.00},
      {"smiles": "C=CO[Si](C)(C)C", "note": "[Trimethyl(vinyloxy)silane]", "flash point": -10.00},
      {"smiles": "CC(C)(C)O[Si](C)(C)C", "note": "[t-Butoxytrimethylsilane]", "flash point": 14.00},
      {"smiles": "CCC[Si](O[SiH](C)C)(O[SiH](C)C)O[SiH](C)C", "note": "[Propyltris(dimethylsiloxy)silane]", "flash point": 50.00},
      {"smiles": "CCCCCCCCCC[Si](C)(Cl)Cl", "note": "[n-Decylmethyldichlorosilane]", "flash point": 120.00},
      {"smiles": "CO[Si](OC)(OC)c1ccccc1", "note": "[Phenyltrimethoxysilane]", "flash point": 85.00},
      {"smiles": "C[Si](C)(C)F", "note": "[Trimethylfluorosilane]", "flash point": -35.00},
      {"smiles": "CO[Si](OC)(c1ccccc1)c1ccccc1", "note": "[Diphenyldimethoxysilane]", "flash point": 121.00},
      {"smiles": "CCCCC=C[Si](Cl)(Cl)Cl", "note": "[1-Hexenyltrichlorosilane]", "flash point": 60.00},
      {"smiles": "CC[Si](CC)(CC)O[Si](CC)(CC)CC", "note": "[Hexaethyldisiloxane]", "flash point": 76.00},
      {"smiles": "ClC[Si](Cl)(Cl)Cl", "note": "[Trichloro(Chloromethyl) silane]", "flash point": 69.00},
      {"smiles": "CCCCCC#C[Si](C)(C)C", "note": "[1-Heptynyltrimethylsilane]", "flash point": 42.00},
      {"smiles": "C[Si](C)(C)c1ccc(Cl)cc1", "note": "[p-Chlorophenyltrimethylsilane]", "flash point": 49.00},
      {"smiles": "C[Si]1(C)O[Si](C)(C)O[Si](C)(C)O[Si](C)(C)O[Si](C)(C)O[Si](C)(C)O1", "note": "[Dodecamethylcyclohexasiloxane]", "flash point": 93.00},
      {"smiles": "C[Si]1(C)O[Si](C)(C)O[Si](C)(C)O[Si](C)(C)O[Si](C)(C)O1", "note": "[Decamethylcyclopentasiloxane]", "flash point": 77.00}
    ]}
  ]
}
